Experiments:
[1] = tested on: BL21(DE3)ung-151 E. coli cells; assay: Uracil content of E. coli genomial DNA by real-time PCR with Pfu WT-pol and Pfu V93Q-pol; type: cell-based, Escherichia coli; conditions: early log phase (OD600=0.5), mean ± SEM, untreated 537±37
Method: Escherichia coli genomial DNA. XL1-blue, BL21(DE3)ung-151 and CJ236 E. coli strains were propagated in LB media at 37° C. and were harvested at the early log phase (OD600=0.5) or at saturated phase (overnight culture). BL21(DE3)ung-151 cells grown in the presence of 30.7 or 61.3 μM 5-fluoro-2′-deoxyuridine (5FdUR) (Sigma-Aldrich) were harvested at the early log phase. Genomial DNA was purified by MasterPure DNA Purification Kit (Epicentre) following the instructions of the manufacturer. The DNA was digested by NdeI restriction enzyme (New England Biolabs) and was separated on 1% agarose gel. […]
(§1) Synthetic and physiological samples purified from agarose gels were applied in series of either 2-fold or 10-fold dilution steps. […] Melting point of the products was measured after a final denaturation at 95° C. for 1 min by heating from 55° C. to 95° C. […] Non-template control was measured in all cases. […] Cq values were determined after the manual setting of threshold level in the early exponential phase of the PCR amplification. […] Efficiency was calculated from the following equation: E=10^(−1/M)−1, where M is the slope of the linear curve and E is the efficiency. […] At each measured CqWt value the shift between the linear curves of the reference and the putatively uracil containing samples was determined. […]

ung−/− MEF cells = assay: Viability assay of MEF cells (AlamarBlue); type: cell-based, mouse; conditions: 0-1000 nM 5FdUR, 4 days, AlamarBlue fluorescence normalized to untreated
Method: (§2) Wild type and ung^(−/−) MEF cells were seeded onto 96-well plates in DMEM+F12 HAM Mix (Sigma) supplemented with 10% Fetal Bovine Serum (Gibco), 1% Penicillin+Streptomycin (Gibco), 0.5 mM Sodium Pyruvate (Gibco), 1% 100× Non-Essential Amino Acids (Gibco). 2000 cells were seeded in a well containing 100 μl medium. After 4 days 10 μl AlamarBlue (Biosource) was added, incubated for 3 hours at 37° C. and fluorescence was measured by Victor2 140 Multilabel counter at 485 nm excitation and 530 nm emission. Samples in triplicates were treated with different concentration of 5FdUR (0, 1, 10, 20, 50, 100, 250, 500, 1000 nM) and viability was assessed. Measurements were repeated three-times. Fluorescence intensity values measured from the wells was normalized to the intensity detected in samples grown in lack of 5FdUR.

wild type MEF cells = assay: Viability assay of MEF cells (AlamarBlue); type: cell-based, mouse; conditions: 0-1000 nM 5FdUR, 4 days, AlamarBlue fluorescence normalized to untreated
Method: as §2

[2] = tested on: wild-type mouse embryonic fibroblast (MEF) cells; assay: Uracil content of MEF genomial DNA by real-time PCR with Pfu WT-pol and Pfu V93Q-pol; type: cell-based; conditions: 100 μM 5FdUR, 4 days, mean ± SEM, practically undetectable
Method: (§3) Mouse Embryonic Fibroblast (MEF) genomial DNA. Wild type and ung^(−/−) MEF cells (34) were a generous gift from Dr. Hilde Nilsen, University of Oslo. MEF cells were cultured in DMEM+F12 HAM Mix (Sigma) supplemented with 10% Fetal Bovine Serum (Gibco), 1% Penicillin+Streptomycin (Gibco), 0.5 mM Sodium Pyruvate (Gibco), 1% 100× Non-Essential Amino Acids (Gibco). To obtain confluent cells 10^6 cells/T-75 flask were seeded. […] Genomial DNA was purified by MasterPure DNA Purification Kit (Epicentre). DNA was digested by EcoRI restriction enzyme (New England Biolabs) and separated on 1% agarose gel. […]
as §1

[3] = tested on: ung−/− mouse embryonic fibroblast (MEF) cells; assay: as above; type: cell-based; conditions: 100 μM 5FdUR, 4 days, mean ± SEM
Method: as §3, §1

`O=c1[nH]c(=O)n([C@H]2C[C@H](O)[C@@H](CO)O2)cc1F` [5FdUR, 5-fluoro-2′-deoxyuridine] was tested, and the “uracil content of genomial DNA” value ([1]; 30.7 μM 5FdUR) was 653±55 deoxyuridine/million dNMP, the “uracil content of genomial DNA” value ([1]; 61.3 μM 5FdUR) was 770±54 deoxyuridine/million dNMP and the viability (ung−/− MEF cells) was “significant decrease in viability”. For the same compound, the viability (wild type MEF cells) was “significant decrease in viability”, the “uracil content of genomial DNA” value [2] was 40±38 deoxyuridine/million dNMP and the “uracil content of genomial DNA” value [3] was 341±87 deoxyuridine/million dNMP.

Source: US20130071848A1 (priority 2011, published 2013)
